Test results as given in ChEMBL document CHEMBL3576853, “Discovery of InhA inhibitors with anti-mycobacterial activity through a matched molecular pair approach” (Eur J Med Chem, 2015).

Experiments:
[1] = tested on: Mycobacterium tuberculosis; assay: Inhibition of Mycobacterium tuberculosis recombinant InhA assessed as enzyme activity measured as NADH oxidation using 2-trans-decenyl CoA as substrate at 50 uM by TECAN spectrophotometer analysis; set-up: scale not given: the % may be the effect or the level left
[2] = tested on: Mycolicibacterium smegmatis; assay: Anti-mycobacterial activity against Mycobacterium smegmatis assessed as bacterial growth inhibition after 24 hrs by microplate reader analysis; type: functional, organism-based
Escherichia coli [3] = assay: Toxicity against Escherichia coli BL21 assessed as bacterial growth inhibition at 50 uM after 8 hrs by microplate reader analysis
Escherichia coli [4] = assay: Toxicity against Escherichia coli JM109 assessed as bacterial growth inhibition at 50 uM after 8 hrs by microplate reader analysis; type: organism-based; details: in vivo
MDCK = assay: Cytotoxicity against dog MDCK cells at 50 uM after 1 day by WST-8 assay; type: cell-based, Canis lupus familiaris; details: 24 h
SH-SY5Y = assay: Cytotoxicity against human SH-SY5Y cells at 50 uM after 2 days by WST-8 assay; type: cell-based; details: 48 h

SMILES | Activity [1] | IC50 [2] | Activity (Escherichia coli [3]) | Activity (Escherichia coli [4]) | Activity (MDCK) | Activity (SH-SY5Y)
O=C(c1ccccc1)N1CCN(Cc2cccc(Oc3ccccc3)c2)CC1 | 21.9% | 22.9 µM | Non-toxic | Non-toxic | Non-toxic | 
O=C(c1cccc(Oc2ccccc2)c1)N1CCN(C(=O)c2ccco2)CC1 | 69.3% |  | Non-toxic | Non-toxic | Non-toxic | 
COc1cccc(C(=O)N2CCN(Cc3cccc(Oc4ccccc4)c3)CC2)c1OC | 65.1% | 28.1 µM | Non-toxic | Non-toxic | Non-toxic | 
Sc1nnc(-c2ccco2)n1/N=C/c1cccc(Oc2ccccc2)c1 | 53.5% |  | Non-toxic | Non-toxic | Non-toxic | 
COc1ccc(OCC(=O)N2CCN(Cc3cccc(Oc4ccccc4)c3)CC2)cc1 | 44.7% |  | Non-toxic | Non-toxic | Non-toxic | Toxic
NNC(=O)c1ccncc1 [ISONIAZID] |  | 9.8 µM |  |  |  | 
O=C(c1ccco1)N1CCN(Cc2cccc(Oc3ccccc3)c2)CC1 | 65.1% | 12 µM |  |  |  | 
O=C(O)C(=O)O.O=C(c1cccnc1)N1CCN(Cc2cccc(Oc3ccccc3)c2)CC1 | 34% |  | Non-toxic | Non-toxic | Non-toxic | 
COc1ccccc1C(=O)N1CCN(Cc2cccc(Oc3ccccc3)c2)CC1.O=C(O)C(=O)O | 37.7% | 25.7 µM | Non-toxic | Non-toxic | Non-toxic | 
O=C(O)C(=O)O.O=C(c1ccccc1F)N1CCN(Cc2cccc(Oc3ccccc3)c2)CC1 | 21.9% | 17.3 µM | Non-toxic | Non-toxic | Non-toxic | 
O=C(Cc1ccccc1)N1CCN(Cc2cccc(Oc3ccccc3)c2)CC1 | 65.6% |  | Non-toxic | Non-toxic | Non-toxic | 
Oc1cc(Cl)ccc1Oc1ccc(Cl)cc1Cl | 16.3% |  |  |  |  | 
O=C(COc1ccccc1)N1CCN(Cc2cccc(Oc3ccccc3)c2)CC1 | 69.3% | 21.4 µM | Non-toxic | Non-toxic | Non-toxic | 
